# ChEMBL document CHEMBL1130538, “Catalytic mechanism of KDO8P synthase: synthesis and evaluation of a putative reaction intermediate” (Bioorg Med Chem Lett, 1997)
# Legend:
# [1] = Half-life was determined at pD 7.0 and 25 degree Centigrade; assay type: ADME; conditions: pH 7
# [2] = The inhibitory activity against KDO 8-P synthase was determined; set-up: species or system Escherichia coli
# [3] = Half-life was determined at pD 7.0 and 37 degree Centigrade; assay type: ADME; conditions: pH 7
smiles,measurement,setting,value
O=C(O)C1(OP(=O)(O)O)CC(O)C(O)C([C@H](O)COP(=O)(O)O)O1 (stereo partly drawn),half-life,[1],4.7 h
same,Ki,[2],35 µM
same,half-life,[3],2.5 h
